From patent EP2766407B1, “PENTABLOCK POLYMERS” (The Curators Of The University Of Missouri, priority 2011, dated 2013)

Assays:
Format in all cases: cell-based
[1] = tested on: ARPE-19 (human retinal pigment epithelial cell line); assay: MTS assay (cytotoxicity), Pentablock Polymer B protocol; conditions: ARPE 19, Triton X control; blank = 100
Method: (§1) The cytotoxicity and biocompatibility of the Pentablock Polymer A and Pentablock Polymer B were investigated in several cell lines. ARPE-19 (human retinal pigment epithelial cell line), SIRC (rabbit corneal cell line), and RAW 264.7 (mouse macrophage cell line) were obtained from American Type Culture Collection ("ATCC"). ARPE-19 cells were cultured in Dubelcco's modified Eagle's medium ("DMEM/F12") supplemented with 10% fetal bovine serum ("FBS"), 100 U/mL penicillin and 100 µg/mL of streptomycin. SIRC cells were cultured in minimum essential medium ("MEM") and supplemented with 10% FBS, 100 U/mL of penicillin and 100 µg/mL of streptomycin. RAW 264.7 (Mouse macrophage cells) cells were cultured in DMEM/F12supplemented with 10% FBS, 10% of nonessential amino acids, 100 U/mL penicillin and 100 µg/mL of streptomycin. The pH of the medium was adjusted to 7.4 and cells were incubated in humidified atmosphere at 37 °C temperature with 5% CO2 environment. The cell cultures were exposed directly to different concentrations of Pentablock Polymer A and Pentablock Polymer B. […]
(§2) MTS assay is based on the reduction of the tetrazolium salt (yellow) to fromazone (purple) by mitochondrial enzymes of metabolic active cells. […] After incubation, the absorbance of each well was measured at 450 nm by ELISA plate reader. The absorbance is directly proportional to viability of cells. […]

PCEC = assay: as above; conditions: Triton X control, blank = 100
Method: Pentablock Polymer B: Cytotoxicity for Pentablock Polymer B was performed at different concentration ranging from 0.5-10 mg/ml. The plates were seeded with cell density of 10,000 cells/100 µL. After 24 hours of incubation fresh medium containing hydrogel of different concentration ranging from 0.5-10 mg/ml were added and further incubated for 24 hours. MTS assay is based on the reduction of the tetrazolium salt (yellow) to fromazone (purple) by mitochondrial enzymes of metabolic active cells. The amount of the fromazone is directly proportional to viable cells. In MTS assay Trioton X treated cells were served as negative control and untreated cells served as positive control. Then, 100 µL of serum free medium containing 20 µL of MTS solution was added to the 96 well plates, and these plates were incubated at 37 °C and 5% CO2 for 4 hours. After incubation, the absorbance of each well was measured at 450 nm by ELISA plate reader. The absorbance is directly proportional to viability of cells. Table 1: MTS assay on Pentablock Polymer A

[2] = tested on: RAW 264.7 (mouse macrophage cell line); assay: MTS assay (cytotoxicity), Pentablock Polymer A protocol; conditions: RAW 264.7, Triton X control; blank = 100
Method: as §1, §2

[3] = tested on: SIRC (rabbit corneal cell line); assay: as above; conditions: Triton X control, blank = 100
Method: as §1, §2

Which results are given for Triton X?
MTS assay [1]: 0.000 ± 0.491; MTS assay (PCEC): 0.000 ± 1.099; MTS assay [2]: 0 ± 0.594; MTS assay [3]: 0 ± 0.271
